{
  "source": "paper PMC8595653",
  "about": "“Activation of specific bitter taste receptors by olive oil phenolics and secoiridoids” (Scientific Reports, 2021)",
  "key": {"25 human TAS2Rs": {"system": "25 human TAS2Rs", "test": "Single dose scanning of phenolic compounds on the 25 bitter taste receptors (calcium mobilization, HEK293E)", "assay_type": "cell-based", "settings": "single dose 300 µM, 25 TAS2Rs, N = 2", "description": "(§1) All constructs were confirmed by DNA sequencing.\n(§2) Data from single dose experiments were collected as duplicates. […] Data represent mean ± SD.\n(§3) To characterize the bitterness of olive oil phenolic compounds, we performed calcium mobilization experiments. The 25 bitter taste receptors, G protein chimera (Gα16-gus44), and the GCaMP calcium sensor[68] were transiently expressed in HEK293E cells. Twelve olive oil phenolic compounds (Fig. 1) were tested for bitter taster receptor activation (Fig. 3). […] Ligstroside aglycon, and Oleuropein aglycon activated TAS2R1, TAS2R8 and TAS2R14 receptors. To validate the single dose scanning results, we performed concentration–response experiments for all the compounds toward receptors TAS2R1, TAS2R8, and TAS2R14 that produced the most significant responses (Fig. 4).\nFigure 3 Phenolic compound bitter taste activity tests on hTAS2Rs. Relative fluorescence signals caused by phenolic compound activation of the receptors and the empty vector as a negative control. The concentration of the compounds used was [300 µM], except for Ligstroside aglycon and Oleuropein aglycon [200 µM], oleuropein that was [3 mM]. The asterisks indicate significant differences tested by one-way ANOVA (***p < 0.0001) (N = 2). Data represent mean ± SD."}, "TAS2R50": {"target": "T1, TAS2R50 (Homo sapiens, UniProt P59544)", "T1 construct": "first 45 amino acids of rat somatostatin type 3 receptor (SSTR3) export tag (N); expressed in transfected cells; host or cells: HEK293E", "T1 sequence (P59544 whole entry)": "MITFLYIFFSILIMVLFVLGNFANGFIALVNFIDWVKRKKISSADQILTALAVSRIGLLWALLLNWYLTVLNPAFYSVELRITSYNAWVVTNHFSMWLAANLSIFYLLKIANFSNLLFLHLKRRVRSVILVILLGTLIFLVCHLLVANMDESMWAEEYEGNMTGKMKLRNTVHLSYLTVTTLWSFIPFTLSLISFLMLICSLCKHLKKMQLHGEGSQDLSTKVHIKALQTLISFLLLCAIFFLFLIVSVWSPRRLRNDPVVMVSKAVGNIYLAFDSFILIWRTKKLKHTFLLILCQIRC", "test": "Calcium mobilization functional assay, TAS2R50", "assay_type": "cell-based", "settings": "1 mM, versus empty pcDNA vector", "description": "as §1, §2"}, "TAS2R31": {"target": "T2, TAS2R31 (Homo sapiens, UniProt P59538)", "T2 construct": "first 45 amino acids of rat somatostatin type 3 receptor (SSTR3) export tag (N); expressed in transfected cells; host or cells: HEK293E", "T2 sequence (P59538 whole entry)": "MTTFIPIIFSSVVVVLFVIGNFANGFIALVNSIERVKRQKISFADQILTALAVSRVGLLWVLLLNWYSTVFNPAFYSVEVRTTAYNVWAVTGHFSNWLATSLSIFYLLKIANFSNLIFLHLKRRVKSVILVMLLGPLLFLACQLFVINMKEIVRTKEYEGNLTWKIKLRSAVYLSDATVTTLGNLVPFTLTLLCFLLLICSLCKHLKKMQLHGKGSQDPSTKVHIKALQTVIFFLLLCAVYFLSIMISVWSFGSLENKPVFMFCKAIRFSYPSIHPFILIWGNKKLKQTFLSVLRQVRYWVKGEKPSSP", "test": "Calcium mobilization functional assay, TAS2R31", "assay_type": "cell-based", "settings": "30 µM, versus empty pcDNA vector", "description": "as §1, §2"}, "TAS2R43": {"target": "T3, TAS2R43 (Homo sapiens, UniProt P59537)", "T3 construct": "first 45 amino acids of rat somatostatin type 3 receptor (SSTR3) export tag (N); expressed in transfected cells; host or cells: HEK293E", "T3 sequence (P59537 whole entry)": "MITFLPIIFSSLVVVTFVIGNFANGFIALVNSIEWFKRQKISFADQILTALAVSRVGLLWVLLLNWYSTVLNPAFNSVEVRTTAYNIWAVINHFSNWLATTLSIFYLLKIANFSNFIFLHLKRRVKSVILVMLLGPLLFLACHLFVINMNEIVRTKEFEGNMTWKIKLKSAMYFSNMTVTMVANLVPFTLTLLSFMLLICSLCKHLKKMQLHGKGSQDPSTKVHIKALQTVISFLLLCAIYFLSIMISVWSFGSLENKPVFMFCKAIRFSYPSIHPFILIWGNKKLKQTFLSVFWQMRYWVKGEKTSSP", "test": "Calcium mobilization functional assay, TAS2R43", "assay_type": "cell-based", "settings": "30 µM, versus empty pcDNA vector", "description": "as §1, §2"}, "TAS2R1": {"target": "T4, TAS2R1 (Homo sapiens, UniProt Q9NYW7)", "T4 construct": "first 45 amino acids of rat somatostatin type 3 receptor (SSTR3) export tag (N); expressed in transfected cells; host or cells: HEK293E", "T4 sequence (Q9NYW7 1-299)": "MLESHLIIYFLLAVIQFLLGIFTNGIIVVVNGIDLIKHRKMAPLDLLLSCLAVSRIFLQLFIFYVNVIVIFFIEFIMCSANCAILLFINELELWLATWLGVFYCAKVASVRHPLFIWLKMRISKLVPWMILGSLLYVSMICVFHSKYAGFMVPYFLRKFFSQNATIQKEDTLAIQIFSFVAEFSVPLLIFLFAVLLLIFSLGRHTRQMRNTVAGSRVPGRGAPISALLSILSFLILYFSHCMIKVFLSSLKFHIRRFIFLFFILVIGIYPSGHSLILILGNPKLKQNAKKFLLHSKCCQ", "test": "Calcium mobilization functional assay, TAS2R1 co-expressed with Gα16-gust44 and GCaMP in HEK293E cells", "assay_type": "cell-based", "settings": "1 mM, versus empty pcDNA vector", "description": "as §1, §2, §3"}, "TAS2R41": {"target": "T5, TAS2R41 (Homo sapiens, UniProt P59536)", "T5 construct": "first 45 amino acids of rat somatostatin type 3 receptor (SSTR3) export tag (N); expressed in transfected cells; host or cells: HEK293E", "T5 sequence (P59536 whole entry)": "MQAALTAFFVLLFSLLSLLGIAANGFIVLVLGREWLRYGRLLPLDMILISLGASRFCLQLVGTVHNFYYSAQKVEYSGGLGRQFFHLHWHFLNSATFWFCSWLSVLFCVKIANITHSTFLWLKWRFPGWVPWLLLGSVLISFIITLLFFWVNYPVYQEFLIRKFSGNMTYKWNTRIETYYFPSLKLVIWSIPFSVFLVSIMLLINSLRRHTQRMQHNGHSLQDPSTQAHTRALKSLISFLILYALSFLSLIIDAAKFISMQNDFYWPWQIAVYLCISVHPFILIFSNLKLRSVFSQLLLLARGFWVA", "test": "Calcium mobilization functional assay, TAS2R41", "assay_type": "cell-based", "settings": "1 mM, versus empty pcDNA vector", "description": "as §1, §2"}, "TAS2R8": {"target": "T6, TAS2R8 (Homo sapiens, UniProt Q9NYW2)", "T6 construct": "first 45 amino acids of rat somatostatin type 3 receptor (SSTR3) export tag (N); expressed in transfected cells; host or cells: HEK293E", "T6 sequence (Q9NYW2 1-309)": "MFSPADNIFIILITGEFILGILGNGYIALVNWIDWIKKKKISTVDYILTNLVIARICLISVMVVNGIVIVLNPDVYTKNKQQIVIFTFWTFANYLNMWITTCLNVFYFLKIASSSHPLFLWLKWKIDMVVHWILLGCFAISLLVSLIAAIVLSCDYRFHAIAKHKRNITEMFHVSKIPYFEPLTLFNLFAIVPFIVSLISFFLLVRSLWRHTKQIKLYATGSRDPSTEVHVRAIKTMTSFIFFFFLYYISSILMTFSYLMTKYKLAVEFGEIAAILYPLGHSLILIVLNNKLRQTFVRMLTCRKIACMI", "test": "Calcium mobilization functional assay, TAS2R8 co-expressed with Gα16-gust44 and GCaMP in HEK293E cells", "assay_type": "cell-based", "settings": "1 mM, versus empty pcDNA vector", "description": "as §1, §2, §3"}, "TAS2R20": {"target": "T7, TAS2R20 (Homo sapiens, UniProt P59543)", "T7 construct": "first 45 amino acids of rat somatostatin type 3 receptor (SSTR3) export tag (N); expressed in transfected cells; host or cells: HEK293E", "T7 sequence (P59543 whole entry)": "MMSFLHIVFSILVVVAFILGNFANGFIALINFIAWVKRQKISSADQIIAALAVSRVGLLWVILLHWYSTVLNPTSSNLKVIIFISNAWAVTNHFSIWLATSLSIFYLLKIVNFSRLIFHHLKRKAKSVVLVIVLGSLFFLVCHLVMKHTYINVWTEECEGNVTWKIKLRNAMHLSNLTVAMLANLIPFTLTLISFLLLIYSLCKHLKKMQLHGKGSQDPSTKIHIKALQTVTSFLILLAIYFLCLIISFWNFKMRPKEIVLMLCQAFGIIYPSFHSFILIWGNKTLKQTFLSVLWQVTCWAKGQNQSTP", "test": "Calcium mobilization functional assay, TAS2R20 (RTP3 and RTP4 co-expressed)", "assay_type": "cell-based", "settings": "10 mM, versus empty pcDNA vector", "description": "as §1, §2"}, "TAS2R30": {"target": "T8, TAS2R30 (Homo sapiens, UniProt P59541)", "T8 construct": "first 45 amino acids of rat somatostatin type 3 receptor (SSTR3) export tag (N); expressed in transfected cells; host or cells: HEK293E", "T8 sequence (P59541 whole entry)": "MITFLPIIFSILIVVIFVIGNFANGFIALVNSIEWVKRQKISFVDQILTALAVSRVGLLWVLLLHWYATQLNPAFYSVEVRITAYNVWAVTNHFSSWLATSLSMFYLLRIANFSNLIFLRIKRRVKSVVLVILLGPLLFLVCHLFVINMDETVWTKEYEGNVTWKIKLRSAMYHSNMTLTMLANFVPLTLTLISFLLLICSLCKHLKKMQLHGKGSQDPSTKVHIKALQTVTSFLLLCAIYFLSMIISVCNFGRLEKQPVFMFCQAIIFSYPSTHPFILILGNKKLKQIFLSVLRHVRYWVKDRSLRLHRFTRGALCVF", "test": "Calcium mobilization functional assay, TAS2R30", "assay_type": "cell-based", "settings": "300 µM, versus empty pcDNA vector", "description": "as §1, §2"}, "TAS2R14": {"target": "T9, TAS2R14 (Homo sapiens, UniProt Q9NYV8)", "T9 construct": "first 45 amino acids of rat somatostatin type 3 receptor (SSTR3) export tag (N); expressed in transfected cells; host or cells: HEK293E", "T9 sequence (Q9NYV8 1-317)": "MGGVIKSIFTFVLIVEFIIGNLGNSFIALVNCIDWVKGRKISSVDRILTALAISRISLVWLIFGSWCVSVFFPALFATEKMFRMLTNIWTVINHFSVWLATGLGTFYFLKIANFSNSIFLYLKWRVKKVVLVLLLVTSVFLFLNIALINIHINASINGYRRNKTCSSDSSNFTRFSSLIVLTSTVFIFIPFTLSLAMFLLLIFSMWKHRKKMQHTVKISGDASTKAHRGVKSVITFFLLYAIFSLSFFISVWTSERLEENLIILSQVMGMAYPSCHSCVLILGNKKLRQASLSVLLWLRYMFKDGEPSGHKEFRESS", "test": "Calcium mobilization functional assay, TAS2R14 co-expressed with Gα16-gust44 and GCaMP in HEK293E cells", "assay_type": "cell-based", "settings": "0.3 mM, versus empty pcDNA vector", "description": "as §1, §2, §3"}, "TAS2R40": {"target": "T10, TAS2R40 (Homo sapiens, UniProt P59535)", "T10 construct": "first 45 amino acids of rat somatostatin type 3 receptor (SSTR3) export tag (N); expressed in transfected cells; host or cells: HEK293E", "T10 sequence (P59535 whole entry)": "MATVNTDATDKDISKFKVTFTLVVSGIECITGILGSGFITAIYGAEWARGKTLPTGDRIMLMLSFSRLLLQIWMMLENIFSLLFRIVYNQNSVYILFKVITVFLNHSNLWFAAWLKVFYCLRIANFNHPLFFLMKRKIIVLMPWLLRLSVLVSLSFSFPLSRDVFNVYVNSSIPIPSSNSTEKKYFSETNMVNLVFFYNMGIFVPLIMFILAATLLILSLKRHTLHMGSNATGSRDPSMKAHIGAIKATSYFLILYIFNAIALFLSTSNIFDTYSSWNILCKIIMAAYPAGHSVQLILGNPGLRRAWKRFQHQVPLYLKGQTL", "test": "Calcium mobilization functional assay, TAS2R40", "assay_type": "cell-based", "settings": "30 µM, versus empty pcDNA vector", "description": "as §1, §2"}, "TAS2R39": {"target": "T11, TAS2R39 (Homo sapiens, UniProt P59534)", "T11 construct": "first 45 amino acids of rat somatostatin type 3 receptor (SSTR3) export tag (N); expressed in transfected cells; host or cells: HEK293E", "T11 sequence (P59534 whole entry)": "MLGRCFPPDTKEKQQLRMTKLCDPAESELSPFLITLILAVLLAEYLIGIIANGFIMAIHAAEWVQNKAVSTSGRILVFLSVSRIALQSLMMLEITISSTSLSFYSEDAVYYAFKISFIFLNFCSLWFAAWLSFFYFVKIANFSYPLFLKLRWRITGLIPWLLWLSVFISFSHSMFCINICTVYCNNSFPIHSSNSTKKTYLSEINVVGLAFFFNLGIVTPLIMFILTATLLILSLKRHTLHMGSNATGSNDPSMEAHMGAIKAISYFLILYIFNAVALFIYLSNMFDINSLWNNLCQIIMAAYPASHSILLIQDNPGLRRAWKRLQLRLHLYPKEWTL", "test": "Calcium mobilization functional assay, TAS2R39", "assay_type": "cell-based", "settings": "10 mM, versus empty pcDNA vector", "description": "as §1, §2"}, "TAS2R46": {"target": "TAS2R46 (Homo sapiens, UniProt P59540)", "sequence (P59540 whole entry)": "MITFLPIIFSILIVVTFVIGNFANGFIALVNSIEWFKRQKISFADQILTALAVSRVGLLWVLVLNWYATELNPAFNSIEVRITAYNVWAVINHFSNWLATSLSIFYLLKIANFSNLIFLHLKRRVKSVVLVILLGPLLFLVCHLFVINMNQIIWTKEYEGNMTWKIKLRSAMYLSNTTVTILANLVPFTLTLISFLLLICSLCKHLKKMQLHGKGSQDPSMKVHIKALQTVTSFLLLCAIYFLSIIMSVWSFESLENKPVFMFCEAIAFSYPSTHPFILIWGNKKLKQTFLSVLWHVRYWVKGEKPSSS", "settings": "300 µM, versus empty pcDNA vector", "description": "25 human TAS2R genes were subcloned into the pcDNA 3.1 vector, as previously descripted in the literature[44],[53]. The first 45 amino acids of the rat somatostatin type 3 receptor, which serves as a cell-surface-targeting signal, were added to the N-termini of the TAS2Rs to target them more efficiently to the cell surface. Herpes simplex virus (HSV) glycoprotein D epitopes were added to the carboxy termini of the receptors for immunocytochemistry. All constructs were confirmed by DNA sequencing.\nHEK293E cells were cultured at 37 °C in DMEM (Thermo Fisher Scientific), supplemented with 10% fetal bovine serum (FBS) and 1% Penicillin Streptomycin. The cells were seeded onto 96-well plates (Clear Bottom Black Polystyrene Poly-D-Lysine Coated Microplates, Corning life sciences) at a density of 50,000 (in 100 μl DMEM) per well, and cultured at 37 °C for overnight. On the second day following seeding, the medium was changed to OPTI-MEM supplemented with 5% FBS (filtered) before co-transfection using Polyethylenimine (PEI) (1.6 μg/well) with plasmid DNAs encoding TAS2Rs (0.1 μg/well), Gα16-gust44 (0.06 μg/well) and the GCaMP calcium sensor (0.035 μg/well). After 24 h, the medium was changed to fresh OPTI-MEM supplemented with 5% FBS (filtered) and 0.1% Plasmocin (InvivoGen). […]"}},
  "note": "“Also recorded” adds a separate entry of the source.",
  "data": [
    {"smiles": "OCCc1ccc(O)cc1", "note": "[Tyrosol, tyrosol]", "values": [
      {"measurement": "activation of any TAS2R", "setting": "25 human TAS2Rs", "result": "did not activate any TAS2Rs; also recorded: failed to activate any bitter receptor; also recorded: failed to activate any TAS2Rs"}
    ]},
    {"smiles": "C=C1CC[C@@H]2[C@](C)(CO)[C@H](O)CC[C@@]2(C)[C@@H]1C/C=C1/C(=O)OC[C@H]1O", "note": "[andrographolide]", "values": [
      {"measurement": "activation of TAS2R50", "setting": "TAS2R50", "result": "activated"}
    ]},
    {"smiles": "COc1cccc2c1cc([N+](=O)[O-])c1c(C(=O)O)cc3c(c12)OCO3", "note": "[aristolochic acid]", "values": [
      {"measurement": "activation of TAS2R31", "setting": "TAS2R31", "result": "activated"},
      {"measurement": "activation of TAS2R43", "setting": "TAS2R43", "result": "activated"}
    ]},
    {"smiles": "O=C(N[C@H](CO)[C@H](O)c1ccc([N+](=O)[O-])cc1)C(Cl)Cl", "note": "[chloramphenicol, reference compound]", "values": [
      {"measurement": "activation of TAS2R1", "setting": "TAS2R1", "result": "activated"},
      {"measurement": "activation of TAS2R41", "setting": "TAS2R41", "result": "activated"},
      {"measurement": "activation of TAS2R8", "setting": "TAS2R8", "result": "activated"}
    ]},
    {"smiles": "O=C(O)c1cc(=O)c2c(OCC(O)COc3cccc4oc(C(=O)O)cc(=O)c34)cccc2o1", "note": "[cromolyn]", "values": [
      {"measurement": "activation of TAS2R20", "setting": "TAS2R20", "result": "activated"}
    ]},
    {"smiles": "CC[N+](CC)(CC(=O)Nc1c(C)cccc1C)Cc1ccccc1", "note": "[denatonium, denatonium benzoate]", "values": [
      {"measurement": "activation of TAS2R30", "setting": "TAS2R30", "result": "activated"}
    ]},
    {"smiles": "O=C(O)c1ccccc1Nc1cccc(C(F)(F)F)c1", "note": "[flufenamic acid, reference compound]", "values": [
      {"measurement": "activation of TAS2R14", "setting": "TAS2R14", "result": "activated"}
    ]},
    {"smiles": "CC(C)=CCC1C(=O)C(C(=O)CC(C)C)=C(O)C(O)(CC=C(C)C)C1=O", "note": "(stereo not shown) [humulone]", "values": [
      {"measurement": "activation of TAS2R40", "setting": "TAS2R40", "result": "activated"}
    ]},
    {"smiles": "CNC(=C[N+](=O)[O-])NCCSCc1ccc(CN(C)C)o1", "note": "[ranitidine]", "values": [
      {"measurement": "activation of TAS2R39", "setting": "TAS2R39", "result": "activated"}
    ]},
    {"smiles": "O=C1C[C@@H]2OCC=C3CN4CC[C@]56c7ccccc7N1[C@H]5[C@H]2[C@H]3C[C@H]46", "note": "[strychnine]", "values": [
      {"measurement": "activation of TAS2R46", "setting": "TAS2R46", "result": "activated"}
    ]}
  ]
}
